The results in this text go back to US5661139A, “Bis-(2-aryl) hydrazones” (Alteon Inc., priority 1995, dated 1997).

The term IC50 denotes the concentration at which inhibition is half-maximal.

System in the first data set: not listed separately
As to the kind of experiment: Inhibition of cross-linking of N-acetyl glycyl-lysine methyl ester in the presence of ribose (fluorescence). Type of data set: biochemical. As to conditions: 0.5M sodium phosphate buffer pH 7.4, ribose, 37 C, 16-24 hours; fluorescence ex 350 nm / em 400 nm. Here is the method:
N-acetylglycyllysine methyl ester (DP in formula below) Ribose (R in formula below)
0.5M sodium phosphate buffer pH 7.4 N-acetylglycyllysine methyl ester in 0.5M sodium phosphate buffer, pH 7.4
Test compounds dissolved in the above buffer and the pH is adjusted to 7.4, if necessary
Reaction mixtures are prepared as follows:
and incubated at 37 C for 16-24 hours. At the end of the incubation period, the fluroescence is read using an excitation wavelength of 350 nm and emission wavelenth of 400 nm. The inhibition of the cross-linking is calculated from the decrease in the fluorescence in the presence of the test compounds according to the formula:
Inhibition (%)=100×[DPRC fluorescence-RC fluorescence]/DPR
For the compound `CC(C=NNc1ccccc1C(=O)OCC(O)CO)=NNc1ccccc1C(=O)OCC(O)CO` (centres unmarked) [Methyl Glyoxal Bis-[1-(2,3-Dihydroxypropane)-2-Hydrazinobenzoate] Hydrazone], the half-maximal inhibitory concentration (IC50) was > 3000 µM. For `CC(C=NNc1ccccc1C(=O)O)=NNc1ccccc1C(=O)O` [Methylglyoxal Bis-(2-Hydrazinobenzoic Acid) Hydrazone], the IC50 amounted to 156 µM. Turning to `CC(C=NNc1ccc(C(=O)O)cc1)=NNc1ccc(C(=O)O)cc1` [Methyl Glyoxal Bis-(4-Hydrazinobenzoic Acid) Hydrazone], the IC50 was found to be 118 µM. On the same count and under the same terms, next, “Methyl Glyoxal Bis-[(1-Hydroxymethyl-1-Acetoxy)-2-Hydrazinobenzoate] Hydrazone”: 764 µM; `CC(C=NNc1ccccc1C(=O)OCc1ccc([N+](=O)[O-])cc1)=NNc1ccccc1C(=O)OCc1ccc([N+](=O)[O-])cc1`: 10000 µM; `CC(C=NNc1ccccc1C(=O)OCc1ccncc1)=NNc1ccccc1C(=O)OCc1ccncc1` [Methyl Glyoxal Bis-[4-Methylpyridyl)-2-Hydrazinobenzoate] Hydrazone]: 1240 µM. On the same count and under the same terms, next, `COC(=O)c1ccc(NN=CC(C)=NNc2ccc(C(=O)OC)cc2)cc1` [Methyl Glyoxal Bis-(Dimethyl 4-Hydrazinobenzoate) Hydrazone]: 10000 µM. On the same count and under the same terms, next, `CC(C=NNc1ccccc1C(=O)OCCO)=NNc1ccccc1C(=O)OCCO` [Methyl Glyoxal Bis-[1-(2-Hydroxyethane)-2-Hydrazinobenzoate] Hydrazone]: 3000 µM; `CC(C=NNc1ccccc1)=NNc1ccccc1` [Methyl Glyoxal Bis-(Phenylhydrazine) Hydrazone]: > 10000 µM. Consider `CC(C=NNc1ccccc1C(=O)OCCOP(=O)(O)O)=NNc1ccccc1C(=O)OCCOP(=O)(O)O` [Methyl Glyoxal Bis-(2-Hydroxyethylphosphate-2-Hydrazinobenzoate) Hydrazone], for which the IC50 is 597 µM. Still for that read-out and setting: next, `COCCOCCOC(=O)c1ccccc1NN=CC(C)=NNc1ccccc1C(=O)OCCOCCOC` [Methyl Glyoxal Bis-(Diethylene Glycol Methyl Ether 2-Hydrazinobenzoate) Hydrazone]: > 10000 µM; `CC(C=NNc1ccccc1C(=O)OCCOCCOCCO)=NNc1ccccc1C(=O)OCCOCCOCCO` [Methyl Glyoxal Bis-(Triethylene Glycol 2-Hydrazinobenzoate) Hydrazone]: 1530 µM. Same read-out and setting: next, `COC(=O)c1ccccc1NN=CC(C)=NNc1ccccc1C(=O)OC` [Methyl Glyoxal Bis-(Dimethyl 2-Hydrazinobenzoate)Hydrazone]: > 10000 µM; `CCOC(=O)c1ccccc1NN=CC(C)=NNc1ccccc1C(=O)OCC` [Methyl Glyoxal Bis-(Diethyl 2-Hydrazinobenzoate) Hydrazone]: 10000 µM.

For a further data set, the system named is fixed protein (gelatin, i.e., collagen) surface. As to the kind of experiment: Surface browning experiment on gelatin/paper disks with glucose-6-phosphate. The note with it: Peridex at a final concentration of 0.04% chlorhexidine, with 100 Mm glucose-6-phosphate, one week at 50° C. How it is done:
To further study the ability of inhibitors of nonenzymatic browning to prevent the discoloration of protein on a surface, such as that which occurs on the tooth surface, the following surface browning experiment is performed. As a substitute for a pellicle-covered tooth surface, unexposed and developed photographic paper is used to provide a fixed protein (gelatin, i.e., collagen) surface on a paper backing. Five millimeter circles are punched and immersed for one week at 50° C. in a solution of 100 Mm glucose-6-phosphate in a 0.5M phosphate buffer, pH 7.4, containing 3 Mm sodium azide. Glucose-6-phosphate is a sugar capable of participating in nonenzymatic browning at a more rapid rate than glucose. In addition to the glucose-6-phosphate, chlorhexidine and/or a compound of Formula I are included. After incubation, the gelatin/paper disks are rinsed with water, observed for brown color, and photographed.
On to `[H]/N=C(\N/C(=N/[H])NCCCCCCNC(=N)NC(=N)Nc1ccc(Cl)cc1)Nc1ccc(Cl)cc1` [chlorhexidine], for which the “browning of the gelatin/paper disks” value is “significant browning”.

Another data set deals with glycated bovine serum albumin (AGE-BSA) cross-linking to rat tail tendon collagen.
Test: not given
As to conditions: 4 h, pH 7.4.
In turn, `CC(C=NNc1ccccc1C(=O)O)=NNc1ccccc1C(=O)O` [Methylglyoxal Bis-(2-Hydrazinobenzoic Acid) Hydrazone] had an IC50 of 40 µM. The same measure, in the same setting: next, `CC(C=NNc1ccc(C(=O)O)cc1)=NNc1ccc(C(=O)O)cc1` [Methyl Glyoxal Bis-(4-Hydrazinobenzoic Acid) Hydrazone]: 11500 µM.
